# Data as given in patent publication US9205073B2, “Method for treating virus infection using derivative of aniline” (CHINA MEDICAL UNIVERSITY, priority 2014, dated 2015).
# How the values were obtained:
# [1] = test system: DEN2; experiment: Dengue virus replication, DEN2 NS1 antigen-capture ELISA in Huh7 cells; type: cell-based, dengue virus type 2; conditions: M.O.I.=5, 48 hours, compound 10 μM
# Protocol: Huh7 cells were cultured in a 24-well culture plate with an initial density of 3×10^4 per well, and with 1 ml of 2% FBS-containing MEM medium per well. The cells were incubated in an incubator (37° C., 5% CO2) overnight. The medium was removed until the cells adhered to the plate. Then, 1 ml of fresh 2% FBS-containing MEM medium was simultaneously added into each well of the culture plate. The cells were infected with DEN2 virus strain (M.O.I.=5). Different concentrations of compound 1 (the final concentrations were 0, 10, 50, 100 and 150 μM, respectively) were added into different wells. The culture plate was placed into an incubator (37° C., 5% CO2) and maintained for 48 hours. The supernatant of viral medium was collected.
# The above obtained supernatant was analyzed by an antigen-capture enzyme-linked immunosorbent assay (ELASA) to quantitate the DEN2 NSI protein level in the viral medium. First, a NS1 antibody was added into each well of a 96-well micro-reaction plate (200 μl/well) and the reaction was maintained at 4° C. overnight. Each well was washed with PBST 3 times (200 μl/time). A 1% BSA-containing blocking buffer (300 μl) was added into each well. […] The reading value of DEN NS1 protein amount in each supernatant was determined by examining the absorbances at a wavelength of 450 nm to evaluate DEN2 replication.
# [2] = MTT assay, cell survival / CC50 in TE671 cells; type: cell-based; conditions: human, read-out: concentration of 50% cytotoxicity (CC50)
# Protocol: In this example, 3-(4,5-dimethylthiazol-2-yl)-2,5-diphenyl tetrazolium bromide (MTT) was used to determine if the survival rate of BHK-21 cells, TE671cells and RD cells would be influenced when being treated with different concentrations of compound 1 prepared in Example 1. The concentration of 50% cytotoxicity (CC50) of compound 1 in BHK-21 cells, TE671cells and RD cells was also calculated.
# MTT is a water-soluble tetrazolium salt which can react in the mitochondrial respiratory chain in living cells to metabolize and reduce the tetrazolium bromide shown in the structure of MTT and to form an water-insoluble purple crystal formazan under the reaction of succinate dehydrogenase (SDH) and cytochrome c (cyt c). The amount of the produced crystal is directly proportional to the number of living cells (because the SDH will disappear from dead cells, and thus, the MTT cannot be reduced). Furthermore, a mitochondrium is an organelle in cells that is most sensitive to the environment, and thus, the MTT assay can serve as a marker for the survival rate of cells treated by the drug.
# BHK-21 cells, TE671cells and RD cells were cultured in a 96-well culture plate, respectively, with an initial density of 3×10^3 per well, and with 100 μl of 2% FBS-containing MEM medium per well. […] The absorbances of the samples were measured by ELISA at a wavelength of 570/630 nm.
structure (smiles),measurement,setting,value
"CCOC(=O)C1=C(Nc2cc(C)cc(C)c2)OCC1=O [Compound 1, ethyl 2-(3′,5′-dimethylanilino)-4-oxo-4,5-dihydrofuran-3-carboxylate]",level of DEN2 NS1 protein,[1],reduced
same,CC50 at 48 h,[2],189 µM
